Measurements reported in patent publication US5434155A, “Quinoline derivative fumarates” (priority 1992, dated 1995).
In brackets after ≈: the same amount, converted by molar mass. Read-outs that look alike come from different tables or passages of the source.

Legend:
physchem = type: physicochemical; settings: water
Protocol: Solubility in water was measured according to the Pharmacopoeia Japan.

[1] = Oral absorbability in dogs (drug concentration in plasma); type: in vivo, Male beagles (dog); settings: dog
Protocol: Male beagles for experimental use were fasted one night before the administration of the test drugs. The drugs were suspended in a 0.1% TWEEN 80--0.1M NaCl--50 mM phosphate buffer solution for administration. All the drugs were forcefully administered in an amount of 50 mg/kg using an oral probe for dogs. Three animals were used for each test group. Blood samples were taken 9 times; 0.25, 0.5, 1, 1.5, 2, 4, 6, 9 and 24 hours after the administration. Blood samples of 5 ml were taken at each sampling time using a heparin-treated disposable injection syringe. Each blood was centrifuged at 3000 rpm for 15 minutes to obtain plasma. Drug concentrations in plasma were measured using HPLC and then calculated from a calibration curve for a standard sample.

[2] = Oral absorbability test in mice (drug concentration in plasma); parameters: species or system 7-Week-old female CDF1 mice; settings: mouse, in vivo
Protocol: 7-Week-old female CDF1 mice were fasted one night before the administration of the test drugs. The drugs were suspended in an aqueous 0.1% TWEEN 80 solution for administration and were forcefully administered in an amount of 100 mg/kg (for the compound No. 2 of Example 1-(c)) and 109 mg/kg (for the compound No. 4 of Comparative Example 1) so as to get the equivalent molarity using a probe for oral administration. Three animals were used for each test group. Blood samples were taken 4 times; 0.5, 1.0, 2.0 and 4.0 hours after the administration. Blood samples were taken by cardiocentesis under anesthesia with chloroform using a heparin-treated disposable injection syringe, Each blood was centrifuged at 4° C. at 6000 rpm for 10 minutes to obtain plasma. Drug concentrations in plasma were measured using HPLC and then calculated from a calibration curve for a standard sample, Results are shown in the following Tables.

[3] = tested on: Vincristine-resistant mouse leukemia cells, P388/VCR; assay: Carcinostatic-effect-stimulating activity (IC50 of vincristine on vincristine-resistant cells); type: cell-based; settings: 72 h, read-out: IC50 of vincristine
Protocol: Carcinostatic-effect-stimulating activity
Vincristine-resistant mouse leukemia cells, P388/VCR, were suspended at a concentration of 2×10^4 cells/ml in an RPMI-1640 medium solution containing […]. 2 ml of the cancer cell suspension per tube (12×75 mm) were inoculated and incubated at 37° C. in a 5% CO2 atmosphere. After 6 hours, vincristine and the compound No. 2 of Example 1-(c) at a concentration of 0.3, 1 or 3 microgram/ml and the incubation was continued at 37° C. under a 5% CO2 atmosphere for 72 hours. The cell culture was added to 9.5 ml of ISOTON II, the number of cells was counted using a call counter and then 50% growth inhibiting concentrations of vincristine IC50 (ng/ml) were calculated.

O=C(C(c1ccccc1)c1ccccc1)N1CCN(CC(O)COc2cccc3ncccc23)CC1 (stereo not drawn) [compound No. 1, 5-[3-{4-(2,2diphenylacetyl)piperazin-1-yl}-2-hydroxypropoxy]quinoline]
solubility (physchem): < 1000 µg/mL
concentration at 0.25 h ([1]; in vivo, po, 50 mg/kg): 2460 ng/mL
concentration at 0.5 h ([1]; in vivo, po, 50 mg/kg): 3370 ng/mL
concentration at 1 h ([1]; in vivo, po, 50 mg/kg): 4530 ng/mL
concentration at 1.5 h ([1]; in vivo, po, 50 mg/kg): 4350 ng/mL
concentration at 2 h ([1]; in vivo, po, 50 mg/kg): 4180 ng/mL
concentration at 4 h ([1]; in vivo, po, 50 mg/kg): 2430 ng/mL
concentration at 6 h ([1]; in vivo, po, 50 mg/kg): 1620 ng/mL
concentration at 9 h ([1]; in vivo, po, 50 mg/kg): 440 ng/mL

O=C(C(c1ccccc1)c1ccccc1)N1CCN(CC(O)COc2cccc3ncccc23)CC1.O=C(O)/C=C/C(=O)O (stereo not drawn) [compound No. 2, 5-[3-{4-(2,2-diphenylacetyl)piperazin-1-yl}-2-hydroxypropoxy]quinoline fumarate]
solubility (physchem): 1400 µg/mL
concentration at 0.5 h ([1]; plasma, male beagles, oral 50 mg/kg, 0.5 hr, read-out: Concentration in plasma, Average): 14700 ng/mL
concentration at 1 h ([1]; plasma, male beagles, oral 50 mg/kg, 1 hr, read-out: Concentration in plasma, Average): 13200 ng/mL
concentration at 1.5 h ([1]; plasma, male beagles, oral 50 mg/kg, 1.5 hr, read-out: Concentration in plasma, Average): 12700 ng/mL
concentration at 2 h ([1]; plasma, male beagles, oral 50 mg/kg, 2 hr, read-out: Concentration in plasma, Average): 10500 ng/mL
concentration at 4 h ([1]; plasma, male beagles, oral 50 mg/kg, 4 hr, read-out: Concentration in plasma, Average): 6760 ng/mL
concentration at 6 h ([1]; plasma, male beagles, oral 50 mg/kg, 6 hr, read-out: Concentration in plasma, Average): 3700 ng/mL
concentration at 9 h ([1]; plasma, male beagles, oral 50 mg/kg, 9 hr, read-out: Concentration in plasma, Average): 1210 ng/mL
concentration at 24 h ([1]; plasma, male beagles, oral 50 mg/kg, 24 hr): 30 ng/mL
concentration at 0.5 h ([2]; po, 100 mg/kg): 18000 ng/mL
concentration at 1 h ([2]; po, 100 mg/kg): 21800 ng/mL
concentration at 2 h ([2]; po, 100 mg/kg): 16000 ng/mL
concentration at 4 h ([2]; po, 100 mg/kg): 13700 ng/mL
IC50 ([3]; vincristine with compound at 0.3 microgram/ml): 0.0569 µg/mL
IC50 ([3]; vincristine with compound at 1 microgram/ml): 0.022 µg/mL
IC50 ([3]; vincristine with compound at 3 microgram/ml): 0.00412 µg/mL

O=C(C(c1ccccc1)c1ccccc1)N1CCN(CC(O)COc2cccc3ncccc23)CC1.O=C(O)CC(O)C(=O)O (stereo not drawn) [compound No. 4, 5-[3-{4-(2,2-diphenylacetyl)piperazin-1-yl)-2-hydroxypropoxy]quinoline malate]
concentration at 0.5 h ([2]; female CDF1 mice, oral 109 mg/kg (equivalent molarity), 0.5 hr, read-out: Concentration in plasma, Average of 3 mice): 14300 ng/mL
concentration at 1 h ([2]; female CDF1 mice, oral 109 mg/kg (equivalent molarity), 1.0 hr, read-out: Concentration in plasma, Average of 3 mice): 11400 ng/mL
concentration at 2 h ([2]; female CDF1 mice, oral 109 mg/kg (equivalent molarity), 2.0 hr, read-out: Concentration in plasma, Average of 3 mice): 11900 ng/mL
concentration at 4 h ([2]; female CDF1 mice, oral 109 mg/kg (equivalent molarity), 4.0 hr, read-out: Concentration in plasma, Average of 3 mice): 5990 ng/mL

CC[C@]1(O)C[C@H]2CN(CCc3c([nH]c4ccccc34)[C@@](C(=O)OC)(c3cc4c(cc3OC)N(C=O)[C@H]3[C@@](O)(C(=O)OC)[C@H](OC(C)=O)[C@]5(CC)C=CCN6CC[C@]43[C@@H]65)C2)C1 [vincristine, reference compound]
IC50 [3]: 0.142 µg/mL (≈ 0.172 µM)
